Assay results taken from US8518903B2, “Use of toll-like receptor-9 agonists” (University of Pittsburgh—of the Commonwealth System of …, priority 2007, dated 2013).

Columns and labels:
[1] = test system: experimental NEC in newborn mice; assay: Murine NEC model in NFkB-GFP transgenic mice (histology, mucosal TNF-α RTPCR, NFκB activation); format: in vivo, mouse
Description: FIG. 27A-G. CpG-ODN-HS and CpG-DNA reduce the development of experimental NEC in vivo in newborn mice. Newborn NEC and control mice were injected with CpG-ODN-HS or CpG-DNA. A. Histology (H&E) of terminal ileum of breast fed mouse. B. Histology (H&E) of terminal ileum of mouse after induction of NEC. C. Histology (H&E) of terminal ileum of mouse treated with CpG-DNA, after which conditions which induced NEC were applied. D. Histology (H&E) of terminal ileum of mouse treated with CpG-ODN-HS, after which conditions which induced NEC were applied. E. Histology (H&E) of terminal ileum of breast fed mouse treated with CpG-ODN-HS. F. Histology (H&E) of terminal ileum of breast fed mouse treated with CpG-DNA. G. Severity of NEC in newborn mice as scored by a blinded pediatric pathologist. *p<0.05 vs. NEC in saline-injected mice.
FIG. 28. CpG-ODN-HS and CpG-DNA reduce the expression of mucosal TNF-α in NEC newborn mice in vivo.
FIG. 29A-D. Confocal microscopy showing the extent of NFkB activation in mice with NEC in the absence or presence of CpG-ODN-HS. CpG-ODN-HS reduces the level of NFkB activation in NEC newborn mice in vivo. The mice express NFkB-GFP, and sections were stained with anti-GFP antibody (red; arrow).
The effect of the TLR9 agonist CpG-ODN 5′ […] 3′ (SEQ ID NO:10; referred to herein as CpG-ODN-HS) on the mediator of activated TLR4, NFκB, was examined in a murine NEC model (previously described, above). The effect of CpG-ODN-HS on inflammation in the NEC murine model was also examined as a measured by TNF-α expression, which is an index of inflammation.
Materials and methods. Phosphorothioated CpG-ODN-HS and oligodeoxynucleotide (ODN) 1826 ([…]) (SEQ ID NO:6; referred to herein as CpG-DNA) were synthesized by the University of Pittsburgh DNA synthesis facility. ODNs were confirmed to be endotoxin-free by Limulus assay. NFkB-GFP antibody was obtained from Santa Cruz and Abcam. The extent of nuclear translocation was determined in an adaptation of the methodology of Ding and colleagues. In brief, a threshold limit was set based upon the emission signal for the nuclear stain DRAQ5, which therefore defined a nuclear region of interest (ROI). To define a corresponding cytoplasmic region of interest, a circular region 12 pixels beyond the nucleus was stenciled upon each cell. The average integrated pixel intensity pertaining to the corresponding NFkB emission within the cytoplasmic and nuclear regions was then determined for more than 200 cells per treatment group in at least four experiments per group, using MetaMorph software version 6.1 (Molecular Devices Corporation, Downingtown, Pa.).
Mucosal TNF-α expression was measured using quantitative real-time PCR (RTPCR). Quantitative real-time PCR in cultured enterocytes and intestinal tissue using the BioRad iCycler (Biorad, Hercules, CA) was performed as in (Leaphart, C. L., J. Cavallo, S. C. Gribar, S. Cetin, J. Li, M. F. Branca, T. D. Dubowski, C. P. Sodhi, and D. J. Hackam. 2007. A Critical Role for TLR4 in the Pathogenesis of Necrotizing Enterocolitis by Modulating Intestinal Injury and Repair. J Immunology 179:4808-4820). Oligonucleotide primer pairs used for RTPCR were as follows: forward: 5′ […] 3′ (SEQ ID NO:14), reverse: 5′ […] 3′ (SEQ ID NO:15); and forward: 5′ […] 3′ (SEQ ID NO:16), reverse: 5′ […] 3′ (SEQ ID NO:17). Gene expression was normalized to β-actin expression. Where indicated, gene expression was assessed on 2.5% agarose gels using ethidium bromide staining. […]

TLR4 = TLR4 distribution and expression in enterocytes after MDP (immunohistochemistry, RT-PCR); format: in vivo, mouse
Description: FIG. 25. MDP treatment decreases TLR4 expression in enterocytes. Newborn mice were treated with LPS after pre-treatment with either saline or MDP. Three hours later mucosal scrapings were harvested from the terminal ileum, and subjected to RT-PCR for expression of TLR4. Representative of 4 separate experiments. Duplicate samples are shown for each group.
MDP treatment of enterocytes reduces the expression of TLR4. The next series of studies investigated the potential mechanisms by which MDP activation of NOD2 could lead to a reduction in the extent of TLR4 signaling.

[2] = test system: experimental NEC in newborn mice; assay: Experimental necrotizing enterocolitis in newborn mice, MDP treatment; format: in vivo, mouse
Description: FIG. 26A-E. MDP prevents against the development of experimental NEC in vivo in newborn mice. Newborn mice were injected with saline or MDP daily for four days, and then were induced to develop NEC. A. Histology (H&E) of terminal ileum of breast fed mouse treated with saline control. B. Histology (H&E) of terminal ileum of breast fed mouse treated with MDP. C. Histology (H&E) of terminal ileum of mouse pre-treated with saline, after which NEC was induced. D. Histology (H&E) of terminal ileum of mouse pre-treated with MDP, after which conditions which induced NEC in saline-treated mice were applied. E: Severity of NEC in newborn mice as scored by a blinded pediatric pathologist. *p<0.05 vs. NEC in saline-injected mice. Representative of three separate experiments with over 5 animals per group.
NOD2 expression in the intestine is reduced in human and experimental necrotizing enterocolitis. […]
MDP prevents against the development of experimental necrotizing enterocolitis. […] It was also determined that mucosal NOD2 expression is decreased in experimental NEC (FIG. 22I). […]

IEC-6 cells [3] = assay: IL-6 release from LPS-treated IEC-6 cells (ELISA); format: cell-based; conditions: IEC-6 cells in vitro
Description: (§1) FIG. 24A-C. MDP inhibits TLR4 signaling in enterocytes. A. IL-6 release in vitro as determined by ELISA in IEC-6 cells that were either untreated, or treated with LPS in the presence or absence of MDP. B. Serum IL-6 release in vivo in wild-type (open bars) and NOD2-deficient mice (solid bars) that were either pre-treated with saline or MDP then injected with LPS. C. SDS-PAGE showing the expression of phosphorylated ERK and beta-actin in IEC-6 cells that were treated with media (control), LPS, LPS with MDP, LPS with MDP-C which is a non-stimulatory analogue of MDP, and either MDP or MDP-C alone. **p<0.05 vs. control by ANOVA, *p<0.05 vs. LPS by ANOVA.
(§2) The next series of experiments were designed to further define the physiological significance of the finding that MDP reduces TLR4-mediated NFkB translocation in enterocytes, and to evaluate potential mechanisms involved. Since NFkB activation is known to lead to the release of pro-inflammatory cytokines including IL-6, experiments were performed to evaluate whether MDP would alter the extent of IL-6 release from LPS-treated IEC-6 cells. […] To determine the physiological significance of this work in vivo, wild-type and NOD2-knockout mice were injected with LPS (5 mg/kg) in the presence or absence of MDP (1 mg/kg), and serum IL-6 release—a measure of TLR4 signaling in vivo—was determined by ELISA.

IEC-6 enterocytes = assay: TLR4-mediated NFkB (p65) translocation in IEC-6 enterocytes treated with LPS and MDP; format: cell-based; conditions: IEC-6 cells
Excerpt: FIG. 23A-E. MDP prevents TLR4-mediated NFkB translocation in IEC-6 enterocytes. […] Representative of 5 separate experiments. **p<0.05 vs. control by ANOVA, *p<0.05 vs. LPS by ANOVA.
NOD2 activation with MDP inhibits TLR4 signaling in enterocytes. The next experiments were designed to determine whether NOD2 activation with MDP would inhibit TLR4 signaling in enterocytes. To do so, IEC-6 enterocytes—a cell line that represents a model system to study enterocyte biology and which expresses TLR4 (Neal et al., 2006, J Immunol 176:3070-3079)—were treated with LPS in the presence or absence of MDP. Since TLR4 signaling leads to the translocation of NFkB from the cytoplasm into the nucleus, the extent of TLR4 activation was evaluated using an immunofluorescence-based detection assay of the p65 subunit of NFkB. As is shown in FIG. 23A and quantified in FIG. 23E, in control cells, NFkB is localized in the cytoplasm. Upon treatment with LPS ([…], 1 h), NFkB was detected in the nucleus, indicative of NFkB activation (FIG. 23B).

[4] = test system: wild-type and NOD2-knockout mice; assay: Serum IL-6 release in LPS-injected wild-type and NOD2-knockout mice (ELISA); format: in vivo, mouse; conditions: LPS 5 mg/kg, MDP 1 mg/kg
Description: as §1, §2

[5] = test system: models of ulcerative colitis; conditions: previous reports; cited from earlier work
IEC-6 cells [6] = assay: pERK expression in LPS-treated IEC-6 cells (SDS-PAGE); format: cell-based
Description: as §1
To further define the effects of MDP on LPS-mediated signaling in enterocytes, IEC-6 cells were treated with LPS in the presence or absence of MDP and the expression of the TLR4 downstream target pERK was assessed by SDS-PAGE. As is shown in FIG. 24C, LPS caused an increase in the expression of pERK compared with untreated cells. […] Taken together, these findings indicate that NOD2 activation with MDP leads to an inhibition of TLR4 signaling in enterocytes in vitro and in vivo.

Row | Compound | activation of NFκB ([1]; NEC mice expressing NFkB-GFP, confocal microscopy) | level of expression of mucosal TNF-α in terminal ileum ([1]; NEC mice, RTPCR) | NEC pathology (histology of terminal ileum) ([1]; NEC mice, treated vs untreated) | relative distribution of TLR4 in enterocytes (TLR4; immunohistochemistry) | expression of TLR4 in enterocytes (TLR4; newborn mice, LPS after MDP pre-treatment, terminal ileum mucosal scrapings, RT-PCR) | extent of NEC that developed (histology of terminal ileum) ([2]; NOD2-wild-type mice, MDP 1 mg/ml daily for four days, vs saline) | intestinal histology ([2]; breast fed mice, MDP alone) | LPS-induced IL-6 release (IEC-6 cells [3]) | LPS-induced nuclear translocation of NFkB (IEC-6 enterocytes; LPS in the presence of MDP) | extent of NFkB translocation (IEC-6 enterocytes; MDP alone) | effect in reducing TLR4 signaling (serum IL-6 release) ([4]; NOD2-knockout mice) | LPS-mediated serum IL-6 release ([4]; wild-type mice) | degree of intestinal inflammation [5] | LPS-induced pERK expression (IEC-6 cells [6])
1 | 5′ TCGTCGTTTTGTCGTTCCTGACGTT 3′ (listed as DNA, chemistry not fully specified) [CpG-ODN-HS, TLR9 agonist CpG-ODN] | reduced | reduced | inhibition of the NEC pathology |  |  |  |  |  |  |  |  |  |  | 
2 | CC(=O)N[C@@H]1[C@@H](O[C@H](C)C(=O)N[C@@H](C)C(=O)N[C@H](CCC(=O)O)C(N)=O)[C@H](O)[C@@H](CO)O[C@H]1O [MDP, muramyl-di-peptide] |  |  |  | does not alter | significant reduction | striking reduction in the extent of NEC | did not alter intestinal histology | significantly reduced | reduction in nuclear translocation | did not significantly alter | less pronounced | significantly reduced | can limit the degree of intestinal inflammation | significantly reduced
3 | CC(=O)NC1C(O)OC(CO)C(O)C1OC(C)C(=O)NC(C)C(=O)NC(CCC(=O)O)C(N)=O (stereo not shown) [MDPC] |  |  |  |  |  |  |  | did not reduce |  |  |  |  |  | did not reduce
